Patent US20190265231A1, “GPCR (GPR113) INVOLVED IN FAT, FATTY ACID AND/OR LIPID-ASSOCIATED TASTE AND USE IN ASSAYS FOR IDENTIFYING TASTE MODULATORY” (SENOMYX, INC., priority 2015, published 2019)

Columns and labels:
GPR113 KO mice = assay: brief-access licking paradigms in WT and GPR113 KO mice; format: in vivo; conditions: for licking response of GPR113 KO mice compared with WT: GPR113 KO versus WT; for licking in response to increasing concentrations: WT mice
Protocol: FIG. 10 contains mean (±SE) number of licks taken to a range of soybean oil concentrations and the vehicle emplex measured during 5-second trials in wild-type (WT; closed circles) and GPR113 knockout (KO; open circles) mice.
Several groups of mice underwent behavioral testing. […] We also tested groups of mice in brief-access licking paradigms. […] Mineral oil was tested as a control for viscosity.

GLX mice = assay: brief access licking after glossopharyngeal nerve transection (GLX); format: in vivo; conditions: C57Bl/6 mice, GLX versus SHAM
Protocol: C57Bl/6 mice (Harlan) were trained to lick in the brief access licking. Following training mice were balanced for body weight and average number of licks per trial to water during training and assigned to a surgery group. Mice were allowed to recover for at least two weeks following surgery. They were given two days of licking to water (shutter training), food was taken away overnight and they were tested for their licking responses to soybean oil in […] over 2 days of testing. The next week they were tested in the same manner to sucrose. Following the last day of testing, mice were euthanized and their tongues were taken for histological analysis. CV papilla were cross sectioned and stained with hematoxylin/eosin. An observer blind to the surgical condition counted taste buds.

Structure (SMILES)	licking response of GPR113 KO mice compared with WT (GPR113 KO mice)	licking in response to increasing concentrations (GPR113 KO mice)	concentration-dependent licking in GLX mice relative to SHAM operated controls (GLX mice)
[Cl-].[Na+] [NaCl]	responded similarly		
CCCCC/C=C\C/C=C\CCCCCCCC(=O)O [linoleic acid]	absent or significantly diminished	increased licking	
C=C[C@H]1C[N@@]2CC[C@H]1C[C@H]2[C@H](O)c1ccnc2ccc(OC)cc12 [quinine]	responded similarly		
O=C(O)CC(O)(CC(=O)O)C(=O)O [citric acid]	responded similarly		
[Cl-].[K+] [KCl]	responded similarly		
CCCCCCCC/C=C\CCCCCCCC(=O)O [oleic acid]	absent or significantly diminished	increased licking	
OC[C@H]1O[C@@](CO)(O[C@H]2O[C@H](CO)[C@@H](O)[C@H](O)[C@H]2O)[C@@H](O)[C@@H]1O [sucrose]	responded similarly		identical increases in licking
